# Measurements published in US20230000813A1, “COMPOUND FOR THE TREATMENT OF BOVINE OR SWINE RESPIRATORY DISEASE” (Intervet Inc., priority 2016, published 2023).
# Values joined by “and” are separate entries in the source; they are usually repeats but may differ in a detail not shown here. Identical values can stand only once. Marks after values point to notes of the source that are not given here.
# Key:
# [1] = tested on: Mannheimia haemolytica MH 10720 (154, BRD field isolate); test: MIC, broth-microdilution (CLSI VET01-A4); assay type: cell-based; settings: strain MH 10720
# Outline: (§1)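 Test compound is serially diluted twofold across microdilution trays, bacteria are grown, and wells are inspected by eye. The lowest concentration showing no growth is recorded as the MIC.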
# [2] = tested on: Mannheimia haemolytica MH 12587 (1071, BRD field isolate, macrolide-resistance: erm+, E+); test: MIC, broth-microdilution (CLSI VET01-A4); assay type: cell-based; settings: strain MH 12587, macrolide-resistant
# Outline: as §1
# [3] = tested on: Mannheimia haemolytica MH 6357 (M7/2, reference strain, cattle infection strain); test: MIC, broth-microdilution (CLSI VET01-A4); assay type: cell-based; settings: strain MH 6357
# Outline: as §1
# [4] = tested on: Mannheimia haemolytica MH 6374 (ATCC 33396, reference strain); test: MIC, broth-microdilution (CLSI VET01-A4); assay type: cell-based; settings: strain MH 6374
# Outline: as §1
# [5] = tested on: Pasteurella multocida PM 10775 (080130003051, BRD field isolate); test: MIC, broth-microdilution (CLSI VET01-A4); assay type: cell-based; settings: strain PM 10775
# Outline: as §1
# [6] = tested on: Pasteurella multocida PM 12080 (IV102277-0093, BRD field isolate); test: MIC, broth-microdilution (CLSI VET01-A4); assay type: cell-based; settings: strain PM 12080
# Outline: as §1
# [7] = tested on: Pasteurella multocida PM 6267 (P 2225 (L386), reference strain, mouse infection strain); test: MIC, broth-microdilution (CLSI VET01-A4); assay type: cell-based; settings: strain PM 6267
# Outline: as §1
# [8] = tested on: Pasteurella multocida PM 6391 (ATCC 43137, reference strain); test: MIC, broth-microdilution (CLSI VET01-A4); assay type: cell-based; settings: strain PM 6391
# Outline: as §1
# [9] = tested on: Acinetobacter baumanii AB 15919 (IV369-2012, dermatitis field isolate); test: MIC, broth-microdilution (CLSI VET01-A4); assay type: cell-based; settings: strain AB 15919
# Method: (§2) The Minimum inhibitory concentrations (MIC) of compounds according to the invention were determined by the broth-microdilution method according to CLSI document VET01-A4.
# (§3) Microdilution trays containing a doubling dilution series of the test compound were used for the tests.
# (§4) The MIC results were interpreted according to the CLSI documents VET01-S3. The lowest concentration of compound at which no visible growth (i.e. no turbidity) detected by the unaided eye was recorded as the MIC.
# [10] = tested on: Acinetobacter baumanii AB 16496 (ATCC 19606, reference strain); test: MIC, broth-microdilution (CLSI VET01-A4); assay type: cell-based; settings: strain AB 16496
# Method: as §2, §3, §4
# [11] = tested on: Mannheimia haemolytica MH 12180 (KLI-02944, BRD field isolate); test: MIC, broth-microdilution (CLSI VET01-A4); assay type: cell-based; settings: strain MH 12180
# Method: as §2, §3, §4
# [12] = tested on: Pasteurella multocida PM 14426 (0006-439, BRD field isolate, macrolide-resistant); test: MIC, broth-microdilution (CLSI VET01-A4); assay type: cell-based; settings: strain PM 14426, macrolide-resistant
# Method: as §2, §3, §4
# [13] = tested on: Staphylococcus aureus SA 5816 (2139, mastitis field isolate); test: MIC, broth-microdilution (CLSI VET01-A4); assay type: cell-based; settings: strain SA 5816
# Method: as §2, §3, §4
# [14] = tested on: Staphylococcus aureus SA 6114 (ATCC 29213, reference strain); test: MIC, broth-microdilution (CLSI VET01-A4); assay type: cell-based; settings: strain SA 6114
# Method: as §2, §3, §4
# [15] = tested on: 20 isolates of Actinobacillus (A.) pleuropneumoniae; test: MIC50/MIC90, broth-microdilution, European respiratory tract isolates; assay type: cell-based
# Method: (§5) The in vitro activity of compounds against 20 isolates of Actinobacillus (A.) pleuropneumoniae, 20 of Bordetella (B.) bronchiseptica, 20 of Histophilus (H.) somni, 40 of Mannheimia (M.) haemolytica and 40 of Pasteurella (P.) multocida collected in different European countries were determined. All bacteria were isolated from the respiratory tract of swine and cattle suffering from respiratory disease. All isolates were epidemiologically unrelated as specified by the different suppliers.
# (§6) The minimum inhibitory concentrations (MIC) of compounds according to the invention were determined by the broth-microdilution method according to CLSI document VET01-A4.
# (§7) Microdilution trays containing a doubling dilution series of the test compounds were used for the tests.
# as §4
# [16] = tested on: 20 isolates of Bordetella (B.) bronchiseptica; test: as above; assay type: cell-based
# Method: as §5, §6, §7, §4
# [17] = tested on: 20 isolates of Histophilus (H.) somni; test: as above; assay type: cell-based
# Method: as §5, §6, §7, §4
# [18] = tested on: 40 isolates of Mannheimia (M.) haemolytica; test: as above; assay type: cell-based
# Method: as §5, §6, §7, §4
# [19] = tested on: 40 isolates of Pasteurella (P.) multocida; test: as above; assay type: cell-based
# Method: as §5, §6, §7, §4
# [20] = tested on: M. haemolytica; test: Mannheimia haemolytica cattle lung infection model, efficacy (Example 10); assay type: in vivo, cattle calves; settings: for Food consumption, cumulated for all animals in the group: 3 calves, 10 mg/kg
# Method: Unless otherwise described the study was conducted as described in Clinical Example 8
# Calves were infected via intratracheal instillation of appr. 300 mL of M. haemolytica PBS suspension containing approximately 4×10^9 CFU M. haemolytica in late log phase on Day 0.
# One hour later three animals each were treated with 10 mg/kg of Compound 231(referred to as C. 231) (80 mg/mL in 10% Poloxamer 188), or 10 mg/kg or 5 mg/kg Compound 329 (referred to as C. 329) (150 mg/mL in 35% Cavitron).
# The following clinical findings were recorded: The general behavior scores of the animals before (DO am) and after infection with M. haemolytica in the different treated and control groups are indicated in FIG. 8-1: 0=normal; 1=slightly depressive, 2=moderately depressive, 3=highly depressive, 4=recumbency.
# The following pathomorphological findings after section on Day 2 were recorded: After measuring the body weight and the lung weight the Lung body mass ratio was calculated as shown in FIG. 8-2. A healthy animal has a lung body mass ration around 1.7 or lower. The area percentage of lung consolidations compared to the total lung tissue and the lung score determined that is a combined score of such percentage of lung consoldiations and the grade. For the “grade” the degree of lung consolidation score was graded from 0 to 3 for each of eight lung lobes: 0 no visible changes, 1 low graded colour changes or induration, 2 medium graded induration, 3 high graded induration, hepatisation, necrosis.
# The geometrical means (CFU/g tissue) of bacteriological re-isolations of Mannheimia haemolytica from lung tissue are illustrated in FIG. 8-4.
# [21] = Plasma and tissue concentrations in infected calves (Example 10); assay type: in vivo, cattle calves; settings: SC single 10 mg/kg (C 231 in 10% Poloxamer 188; C 329 in 35% Cavitron), individual animals and mean
# [22] = calves infected with M. haemolytica, SC, single, 10 mg/kg BW
structure (smiles),measurement,setting,value
CCCNCc1ccc(C#Cc2ccc(C(=O)N[C@H](C(=O)NO)[C@@H](C)O)cc2)cc1 [C. 251],MIC,[1],0.25 µg/mL
same,MIC,[2],2 µg/mL
same,MIC,[3],2 µg/mL
same,MIC,[4],8 µg/mL
same,MIC,[5],8 µg/mL
same,MIC,[6],0.063 µg/mL
same,MIC,[7],1 µg/mL
same,MIC,[8],8 µg/mL
same,MIC,[9],>16 µg/mL
same,MIC,[10],>16 µg/mL
same,MIC,[11],8 µg/mL
same,MIC,[12],8 µg/mL
same,MIC,[13],>16 µg/mL
same,MIC,[14],>16 µg/mL
same,MIC50,[15],0.25 µg/mL
same,MIC90,[15],0.5 µg/mL
same,MIC50,[16],>16 µg/mL
same,MIC90,[16],>16 µg/mL
same,MIC50,[17],0.125 µg/mL
same,MIC90,[17],0.25 µg/mL
same,MIC50,[18],1 µg/mL
same,MIC90,[18],1 µg/mL
same,MIC50,[19],0.063 µg/mL
same,MIC90,[19],0.125 µg/mL
COCCNCc1ccc(C#Cc2ccc(C(=O)N[C@H](C(=O)NO)[C@@H](C)O)cc2)cc1 [C. 231],MIC,[1],0.5 µg/mL
same,MIC,[2],0.5 µg/mL
same,MIC,[3],0.5 µg/mL
same,MIC,[4],0.25 µg/mL
same,MIC,[5],≤0.016 µg/mL
same,MIC,[6],0.063 µg/mL
same,MIC,[7],≤0.016 µg/mL
same,MIC,[8],0.063 µg/mL
same,MIC,[9],>16 µg/mL
same,MIC,[10],>16 µg/mL
same,MIC,[11],0.5 µg/mL
same,MIC,[12],0.032 µg/mL
same,MIC,[13],>16 µg/mL
same,MIC,[14],>16 µg/mL
same,MIC50,[15],0.25 µg/mL
same,MIC90,[15],0.5 µg/mL
same,MIC50,[16],>16 µg/mL
same,MIC90,[16],>16 µg/mL
same,MIC50,[17],0.125 µg/mL
same,MIC90,[17],0.25 µg/mL
same,MIC50,[18],0.5 µg/mL
same,MIC90,[18],1 µg/mL
same,MIC50,[19],≤0.016 µg/mL
same,MIC90,[19],0.063 µg/mL
same,"Food consumption, cumulated for all animals in the group","[20]; D 0 am, after infection and treatment",1800** g
same,"Food consumption, cumulated for all animals in the group",[20]; D 0 pm,4800 g
same,"Food consumption, cumulated for all animals in the group",[20]; D +1 am,4800 g
same,"Food consumption, cumulated for all animals in the group",[20]; D +1 pm,4800 g
same,"Food consumption, cumulated for all animals in the group",[20]; D −1 (before infection),4800 g
same,Bacteriological Cure (x of n),[20]; [22],2/3
same,Survival (x of n),[20]; [22],3/3
same,efficacy against an artificial lung infection with M. haemolytica in the calf,"[20]; tested dosages 10 mg/kg for C 231 and 10 mg/kg and 5 mg/kg for C 329, conclusion in words",effective
same,"Concentration, Tissue (48 h) ELF",[21],BLQ
same,"Concentration, Tissue (48 h) Muscle",[21],27 ng/mL
same,"Concentration, Plasma 0.5 h",[21]; 10 mg/kg,1150 ng/mL (2×) and 1320 ng/mL
same,"Concentration, Plasma 2 h",[21]; 10 mg/kg,448 ng/mL and 468 ng/mL and 447 ng/mL
same,"Concentration, Plasma 4 h",[21]; 10 mg/kg,179 ng/mL and 171 ng/mL and 180 ng/mL
same,"Concentration, Plasma 6 h",[21]; 10 mg/kg,83.9 ng/mL and 82.8 ng/mL and 102 ng/mL
same,"Concentration, Plasma 24 h",[21]; 10 mg/kg,6.21 ng/mL and 10.8 ng/mL and 7.47 ng/mL
same,"Concentration, Plasma 48 h",[21]; 10 mg/kg,BLQ and 7.16 ng/mL and 5.74 ng/mL
same,"Concentration, Tissue (48 h) Kidney",[21]; 10 mg/kg,56 ng/mL and 53.8 ng/mL and 79.3 ng/mL
same,"Concentration, Tissue (48 h) Liver",[21]; 10 mg/kg,48.7 ng/mL and 41.2 ng/mL and 66.9 ng/mL
same,"Concentration, Tissue (48 h) Lung",[21]; 10 mg/kg,26.6 ng/mL and BLQ and 22.4 ng/mL
same,"Concentration, Tissue (48 h) Muscle",[21]; 10 mg/kg,BLQ
same,"Concentration, Plasma 0 h",[21]; predose,BLQ
